# Read-outs that look alike come from different tables or passages of the source.
# Columns and labels:
# [1] = tested on: HIV-1 strain IIIB (lymphocytotropic strain); assay: Single-round infection assay, cell-free X4 virus (lymphocytotropic strain); type: cell-based; details: read-out: (X4) EC50, Table 2, single-round infection assay
# Procedure: (§1) Anti-HIV activities of the compounds were evaluated according to the previously reported procedure. In summary, the HeLa (Human cervical carcinoma: ATCC CCL-2.1) cell line was used to measure the inactivation of both the cell-free virus preparations and virus-infected cell preparations. The cells were plated in culture plates 24 h prior to each experiment. Cell-free viral preparations of HIV-1 strains IIIB (lymphocytotropic strain) and BaL (monocytotropic strain) were used for the cell-free assay. For the cell-associated assay, the SulT1 cells were infected with IIIB virus 5 days prior to the experiment. Cell-free virus and virus-infected cells were mixed with different compounds and diluted to make different concentrations. The mixture was further diluted with the buffer and added to the HeLa cells.
# [2] = tested on: HIV-1 94US3393IN (B-Wild Type); assay: PBMC multi-round infection assay, clinical isolate 94US3393IN; type: cell-based; details: Human immunodeficiency virus 1
# Procedure: Based on a preliminary screening, conjugates 5 and 8 were evaluated for their ability to inhibit a drug-resistant virus in a peripheral blood mononuclear cell (PBMC) assay. In this assay, FLT, 5, and 8 were tested against B- and C-wild type and A-17 and 4755–5 multidrug-resistant (MDR) clinical isolates of HIV-1, where compounds were incubated with PBMCs for 6 h and then washed off before the addition of the virus and further culture for 7 days.
# For the assessment of compounds against the wild type (WT; R5; clones = 94US3393IN [B subtype] and 98USMSC5016 [C subtype]) and drug-resistant (clones = 4755−5 and A17) HIV-1 clinical isolates, PHA-P stimulated cells from at least two normal donors were pooled, diluted in fresh media, and plated in the interior wells of a 96-well round-bottom microplate. Pooling PBMCs from more than one donor was used to minimize the variability observed between the individual donors, which results from the quantitative and qualitative differences in HIV infection and overall response to the PHA and IL-2 of primary lymphocyte populations. Each plate contained virus/cell control wells (cells + virus), experimental wells (drug + cells + virus), and compound control wells (drug + media, no cells, necessary for MTS monitoring of cytotoxicity). Test drug dilutions were prepared in microtiter tubes, and each concentration was placed in appropriate wells. Following the addition of the drug dilutions to the PBMCs, a predetermined dilution of virus stock was then placed in each test well (final MOI ≅ 0.1). Because HIV-1 is not cytopathic to PBMCs, the same assay plate can be used for both the antiviral efficacy and cytotoxicity measurements. Compounds were incubated with virus and cells in a 96-well format for 6 h. The cells were then washed by removing 75% of the medium (150 μL) and replacing it with 150 μL of fresh (no drug) medium. The plates were then centrifuged (∼200 g) for 10 min, after which 150 μL of the medium was removed, and an additional 150 μL of fresh medium was added to each well and further incubated for 6 days or until peak reverse transcriptase (RT) activity was detected. A microtiter plate-based RT reaction was utilized. Incorporated radioactivity (counts per minute, CPM) was quantified using standard liquid scintillation techniques. Compound IC50 (50%, inhibition of virus replication) was calculated using statistical software and regression analysis. A cellular uptake study was conducted for fluorescence conjugates 23 and 24 using a previously published procedure with minor modifications. All of the experiments were conducted in triplicate.
# [3] = pKa by dip-probe absorption spectroscopy (D-PAS); type: physicochemical; details: methanol-water co-solvent, Yasuda-Shedlovsky extrapolation
# Procedure: Physicochemical properties including pKa, Log D, and solubility were determined for 5 (as a model compound). […] It was not possible to measure the partition coefficient (Log P) of the fatty acyl derivatives of FLT and AZT in a standard n-octanol/water mixture because of the insolubility of the compounds in water. The cLog P value was calculated as 5.23 using ChemDraw. […] Since most of 5 is in its neutral form, the Log D value will correspond to the Log P value.
# The pKa for 5 was determined using dip-probe absorption spectroscopy (D-PAS). The sample was initially titrated in a fast titration between pH 1.8 and pH 12.1 at concentrations of 33–49 µM under aqueous conditions. Precipitation of the sample from the solution was observed below approximately pH 11. The sample was subsequently titrated under methanol–water co-solvent conditions in two triple titrations from pH 12.2 to pH 3.7 at concentrations of 31–49 µM. The methanol ratio varied from to 25.5–50.8%. No precipitation of the sample from the solution was observed under this condition. The pKa was determined from the spectroscopic data by the Yasuda–Shedlovsky extrapolation of the individual obtained results.
# [4] = Solubility (shake-flask, UV detection; organic solvents); type: physicochemical
# Procedure: Solubility for 5 was investigated by the shake-flask methodology with UV-spectroscopic sample detection. To produce a saturated solution of 5, approximately 1 mg of solid material was added to 10 mL of an aqueous solution, which was adjusted to pH 2.3 with 0.5 M HCl. The sample was then sonicated in an ultrasonic bath for several hours (at room temperature) before being left to equilibrate for a period of approximately 3 days. The supernatant was then filtered under vacuum through a 0.2 µm PVDF filter plate, and the UV absorption spectrum of the sample was measured (after adjusting the pH of the solution to 11.8 with 0.5 M KOH). Molar absorption coefficients of 5 were obtained at pH 11.8 for 25 µM, 50 µM, and 100 µM solutions of 5, in order to quantify the concentration of the sample in the saturated supernatant. […] However, 5 was less soluble in DMSO (~4.1 mg/mL).
# HIV-1 = assay: Anti-HIV activity overall (cell-free and cell-associated assays) and antiviral index; type: cell-based
# Description: Table 2, Table 3 and Table 4 illustrate the anti-HIV-1 activities against the cell-free, cell-associated, and multidrug-resistant virus and sperm inhibiting properties of the selected compounds. In summary, the anti-HIV activity of 5′-substituted derivatives of FLT and AZT (5–18) was dependent on the nature of the 5′-substituent. […] None of the other esters were active against cell-associated virus. […] The difference in the activity of fatty acyl derivatives of FLT compared to each other and FLT may be due to their differences in the rate of uptake and intracellular hydrolysis.
# By design, the ester moiety in the conjugates needs to be hydrolyzed to render parent nucleosides and fatty acids to produce anti-HIV activity. The anti-HIV activities of 5′-O-ether substituted FLT and AZT (3 and 4, Scheme 2) with a stable tetradecanyl (myristyl) group were compared with hydrolyzable 5′-O-ester substituted FLT and AZT (6 and 7).
# as §1
smiles,measurement,setting,value
"Cc1cn([C@H]2C[C@H](F)[C@@H](COC(=O)CCCCCCCCCCCN=[N+]=[N-])O2)c(=O)[nH]c1=O [Compound 5, 3′-fluoro-2′,3′-dideoxy-5′-O-(12-azidododecanoyl)thymidine]",EC50,"[1]; Human immunodeficiency virus 1, IIIB",≤ 1000 nM
same,EC50,[1],900 nM
same,IC50,[2],1.1 nM
same,IC90,[2],6.4 nM
same,pKa,[3],9.67
same,solubility,"[4]; DMSO, organic solvent or mixture, DMSO, read-out: solubility in DMSO",~4100 µg/mL
same,solubility,"[4]; aqueous solution adjusted to pH 2.3, pH 2.3, aqueous buffer, thermodynamic from solid, shake-flask, UV detection, read-out: aqueous solubility (upper limit)",≤ 0.51 µM
same,solubility,"[4]; ethanol, organic solvent or mixture, ethanol, read-out: solubility in ethanol",> 30000 µg/mL
same,solubility in water/methanol (60:40),[4]; mixture of water/methanol (60:40),completely soluble
same,anti-HIV activity (in words),HIV-1,significant anti-HIV activity at noncytotoxic concentrations
same,"antiviral index, times better than AZT",HIV-1; versus AZT,> 30 times
same,"antiviral index, times better than FLT",HIV-1; versus FLT,> 4 times

# Reference: publication PMC9143043, “Synthesis and Biological Evaluation of 5′-O-Fatty Acyl Ester Derivatives of 3′-Fluoro-2′,3′-dideoxythymidine as Potential Anti-HIV Microbicides” (Molecules, 2022)
